Common to all, as to format: functional
Test [1] has as its system Rattus norvegicus. Description: Anti-inflammatory activity against carrageenan-induced paw oedema in Wistar albino rat assessed as hind paw thickness at 50 mg/kg, po pretreated for 1 hr followed by carrageenan challenge measured immediately by caliper method (reference value: 3.58 +/- 0.34 millimeter). Background: In the carrageenan paw model, swelling and tenderness develop within hours.

The subject of test [2] is Rattus norvegicus. Nature of the test: Anti-inflammatory activity against carrageenan-induced paw oedema in Wistar albino rat assessed as hind paw thickness at 50 mg/kg, po pretreated for 1 hr followed by carrageenan challenge measured after 5 hrs by caliper method (reference value: 8.37 +/- 0.64 millimeter).
The test system of test [3] is Rattus norvegicus. Description: Anti-inflammatory activity against carrageenan-induced paw oedema in Wistar albino rat assessed as hind paw thickness at 50 mg/kg, po pretreated for 1 hr followed by carrageenan challenge measured after 3 hrs by caliper method (reference value: 8.45 +/- 0.64 millimeter).
The test system of test [4] is Rattus norvegicus. Description: Anti-inflammatory activity against carrageenan-induced paw oedema in Wistar albino rat assessed as reduction in nitrite level at 50 mg/kg, po pretreated for 1 hr followed by carrageenan challenge by Griess assay relative to control. Also noted: scale not given: the % may be the effect or the level left.
Test [5] concerns Rattus norvegicus. Description: Anti-inflammatory activity in Wistar albino rat assessed as inhibition of cotton pellet-induced granuloma at 50 mg/kg administered once daily for 7 days measured on day 8 relative to control. Also noted: scale not given: the % may be the effect or the level left.
In test [6] the test system is Rattus norvegicus. Description: Anti-inflammatory activity against carrageenan-induced paw oedema in Wistar albino rat assessed as reduction in PGE2 level at 50 mg/kg, po pretreated for 1 hr followed by carrageenan challenge by ELISA relative to control. On the set-up: scale not given: the % may be the effect or the level left.
In test [7] the test system is Rattus norvegicus. Nature of the test: Anti-inflammatory activity against carrageenan-induced paw oedema in Wistar albino rat assessed as reduction in hind paw thickness at 50 mg/kg, po pretreated for 1 hr followed by carrageenan challenge measured after 5 hrs by caliper method relative to control. On the set-up: scale not given: the % may be the effect or the level left.

Test [8] has as its system Mus musculus. Nature of the test: Antiinflammatory activity in mouse assessed as inhibition of croton oil-induced ear edema at 1 mg/ear administered topically pretreated for 1 hr followed by croton oil addition and measured after 4 hrs relative to control. On the set-up: scale not given: the % may be the effect or the level left.
In test [9] the test system is Rattus norvegicus. Nature of the test: Anti-inflammatory activity against carrageenan-induced paw oedema in Wistar albino rat assessed as reduction in TNFalpha level at 50 mg/kg, po pretreated for 1 hr followed by carrageenan challenge by ELISA relative to control. Also noted: scale not given: the % may be the effect or the level left.
Test [10] has as its system Rattus norvegicus. Nature of the test: Anti-inflammatory activity against carrageenan-induced paw oedema in Wistar albino rat assessed as reduction in hind paw thickness at 50 mg/kg, po pretreated for 1 hr followed by carrageenan challenge measured after 3 hrs by caliper method relative to control. On the set-up: scale not given: the % may be the effect or the level left.

For test [11], the system named is Rattus norvegicus. Nature of the test: Anti-inflammatory activity against carrageenan-induced paw oedema in Wistar albino rat assessed as hind paw thickness at 10 mg/kg, po pretreated for 1 hr followed by carrageenan challenge measured after 3 hrs by caliper method (reference value: 8.45 +/- 0.64 millimeter).
Test [12] has as its system Rattus norvegicus. Nature of the test: Anti-inflammatory activity against carrageenan-induced paw oedema in Wistar albino rat assessed as reduction in nitrite level at 10 mg/kg, po pretreated for 1 hr followed by carrageenan challenge by Griess assay relative to control. Also noted: scale not given: the % may be the effect or the level left.
Test [13] concerns Rattus norvegicus. Description: Anti-inflammatory activity against carrageenan-induced paw oedema in Wistar albino rat assessed as reduction in TNFalpha level at 10 mg/kg, po pretreated for 1 hr followed by carrageenan challenge by ELISA relative to control. On the set-up: scale not given: the % may be the effect or the level left.
Test [14] concerns Rattus norvegicus. Nature of the test: Anti-inflammatory activity in Wistar albino rat assessed as inhibition of cotton pellet-induced granuloma at 10 mg/kg administered once daily for 7 days measured on day 8 relative to control. On the set-up: scale not given: the % may be the effect or the level left.
In test [15] the test system is Rattus norvegicus. Nature of the test: Anti-inflammatory activity against carrageenan-induced paw oedema in Wistar albino rat assessed as reduction in PGE2 level at 10 mg/kg, po pretreated for 1 hr followed by carrageenan challenge by ELISA relative to control. On the set-up: scale not given: the % may be the effect or the level left.
For test [16], the system named is Rattus norvegicus. Description: Anti-inflammatory activity against carrageenan-induced paw oedema in Wistar albino rat assessed as hind paw thickness at 10 mg/kg, po pretreated for 1 hr followed by carrageenan challenge measured immediately by caliper method (reference value: 3.58 +/- 0.34 millimeter).
Test [17] concerns Rattus norvegicus. Description: Anti-inflammatory activity against carrageenan-induced paw oedema in Wistar albino rat assessed as hind paw thickness at 10 mg/kg, po pretreated for 1 hr followed by carrageenan challenge measured after 5 hrs by caliper method (reference value: 8.37 +/- 0.64 millimeter).
Test [18] deals with Mus musculus. Nature of the test: Antiinflammatory activity in mouse assessed as inhibition of croton oil-induced ear edema at 0.5 mg/ear administered topically pretreated for 1 hr followed by croton oil addition and measured after 4 hrs relative to control. Also noted: scale not given: the % may be the effect or the level left.

SMILES strings stand for the structures.

Consider `O=C1/C(=C/c2ccccc2Cl)CNCC12[C@@H](c1ccccc1Cl)[C@@H]1CCCCN1[C@@]21C(=O)Nc2ccccc21` (some centres undefined), for which the figures for the Activity with Rattus norvegicus [1], in the test on Rattus norvegicus [2] and with Rattus norvegicus [3] were 3.59 mm, 7.18 mm and 6.54 mm, respectively.

`COc1ccc(/C=C2\CNCC3(C2=O)[C@@H](c2ccc(OC)cc2)[C@@H]2CCCCN2[C@@]32C(=O)Nc3ccccc32)cc1` (some centres undefined): the Activity was 3.58 mm with Rattus norvegicus [1]; 3.72 mm in the test with Rattus norvegicus [2]; 41.22% in the test with Rattus norvegicus [4]; 32.48 - 37.21% in the test on Rattus norvegicus [5]; 3.75 mm with Rattus norvegicus [3]; 34.1% with Rattus norvegicus [6]. Moreover, the Activity in the test on Rattus norvegicus [7] is 55.54%; in the test on Mus musculus [8] it was 48.32 - 49.02%; in the test with Rattus norvegicus [9] it was 38.52%; in the test with Rattus norvegicus [10], 55.61%.

For the compound `O=C1/C(=C/c2ccc(Br)cc2)CNCC12[C@@H](c1ccc(Br)cc1)[C@@H]1CCCCN1[C@@]21C(=O)Nc2ccccc21` (some centres undefined), the Activity is recorded as 3.58 mm in the test on Rattus norvegicus [1], 7.7 mm in the test with Rattus norvegicus [2] and 7.62 mm in the test with Rattus norvegicus [3].

With `Cc1ccccc1/C=C1\CNCC2(C1=O)[C@@H](c1ccccc1C)[C@@H]1CCCCN1[C@@]21C(=O)Nc2ccccc21` (some centres undefined), the results for the Activity in the test on Rattus norvegicus [1], in the test on Rattus norvegicus [2] and in the test on Rattus norvegicus [3] were 3.63 mm, 7.41 mm and 7.5 mm, respectively.

Regarding `COc1ccccc1/C=C1\CNCC2(C1=O)[C@@H](c1ccccc1OC)[C@@H]1CCCCN1[C@@]21C(=O)Nc2ccccc21` (some centres undefined), the Activity turned out to be 3.67 mm in the test with Rattus norvegicus [1], 7 mm in the test on Rattus norvegicus [2] and 6.31 mm in the test on Rattus norvegicus [3].

On to `Cc1ccc(/C=C2\CNCC3(C2=O)[C@@H](c2ccc(C)cc2)[C@@H]2CCCCN2[C@@]32C(=O)Nc3ccccc32)cc1` (some centres undefined), for which the Activity in the test on Rattus norvegicus [1] is listed as 3.55 mm; with Rattus norvegicus [2], 3.74 mm; in the test on Rattus norvegicus [4], 42.99%; in the test with Rattus norvegicus [5], 24.17 - 33.23%; with Rattus norvegicus [3] it was 3.87 mm; in the test on Rattus norvegicus [6] it was 35.23%. In addition, the Activity in the test with Rattus norvegicus [7] was 55.3%; with Mus musculus [8] it was 47.53 - 54.53%; in the test on Rattus norvegicus [9], 36.23%; in the test with Rattus norvegicus [10] it was 54.07%.

Take `O=C1/C(=C/c2ccccc2Br)CNCC12[C@@H](c1ccccc1Br)[C@@H]1CCCCN1[C@@]21C(=O)Nc2ccccc21` (some centres undefined): the results for the Activity in the test on Rattus norvegicus [1], with Rattus norvegicus [2] and in the test on Rattus norvegicus [3] were 3.54 mm, 6.2 mm and 7 mm, respectively.

For `COc1cccc(/C=C2\CNCC3(C2=O)[C@@H](c2cccc(OC)c2)[C@@H]2CCCCN2[C@@]32C(=O)Nc3ccccc32)c1` (some centres undefined), the Activity came out at 3.61 mm in the test on Rattus norvegicus [1], 7.62 mm in the test with Rattus norvegicus [2] and 8.1 mm in the test with Rattus norvegicus [3].

Consider `O=C1/C(=C/c2ccc(F)cc2)CNCC12[C@@H](c1ccc(F)cc1)[C@@H]1CCCCN1[C@@]21C(=O)Nc2ccccc21` (some centres undefined), for which the Activity in the test on Rattus norvegicus [1] is reported as 3.62 mm; in the test on Rattus norvegicus [2], 6.9 mm; in the test with Rattus norvegicus [3] it was 7.18 mm.

As for `COc1ccc2c(c1)c(CC(=O)O)c(C)n2C(=O)c1ccc(Cl)cc1` [INDOMETHACIN], the Activity in the test with Rattus norvegicus [11] was 3.86 mm; with Rattus norvegicus [12] it was 41.64%; with Rattus norvegicus [13], 37.13%; in the test on Rattus norvegicus [14], 39.7%; with Rattus norvegicus [15], 33.88%; in the test with Rattus norvegicus [16], 3.61 mm. The Activity in the test with Rattus norvegicus [17] is reported as 3.83 mm; in the test with Mus musculus [18], 53.56%.

Consider `O=C1/C(=C/c2ccc(Cl)cc2)CNCC12[C@@H](c1ccc(Cl)cc1)[C@@H]1CCCCN1[C@@]21C(=O)Nc2ccccc21` (some centres undefined), for which the Activity is on record as 3.62 mm in the test on Rattus norvegicus [1], 8 mm in the test with Rattus norvegicus [2] and 8.16 mm in the test on Rattus norvegicus [3].

In the case of `O=C1/C(=C/c2ccccc2)CNCC12[C@@H](c1ccccc1)[C@@H]1CCCCN1[C@@]21C(=O)Nc2ccccc21` (some centres undefined), the Activity came out at 3.61 mm with Rattus norvegicus [1], 6.98 mm in the test with Rattus norvegicus [2] and 7.21 mm in the test on Rattus norvegicus [3].

In the case of `Cc1cccc(/C=C2\CNCC3(C2=O)[C@@H](c2cccc(C)c2)[C@@H]2CCCCN2[C@@]32C(=O)Nc3ccccc32)c1` (some centres undefined), the figures for the Activity with Rattus norvegicus [1], in the test with Rattus norvegicus [2] and in the test on Rattus norvegicus [3] were 3.58 mm, 7.82 mm and 8.16 mm, respectively.

Turning to `O=C1/C(=C/c2ccc(Cl)cc2Cl)CNCC12[C@@H](c1ccc(Cl)cc1Cl)[C@@H]1CCCCN1[C@@]21C(=O)Nc2ccccc21` (some centres undefined), the Activity with Rattus norvegicus [1] worked out at 3.59 mm; with Rattus norvegicus [2] it was 6.5 mm; in the test on Rattus norvegicus [3], 7.12 mm.

Turning to `O=C1/C(=C/c2ccccc2F)CNCC12[C@@H](c1ccccc1F)[C@@H]1CCCCN1[C@@]21C(=O)Nc2ccccc21` (some centres undefined), the Activity in the test with Rattus norvegicus [1] is given as 3.61 mm; with Rattus norvegicus [2] it was 6.13 mm; in the test on Rattus norvegicus [3], 6.53 mm.

Source of the values: ChEMBL document CHEMBL4152255, “Functionalized spirooxindole-indolizine hybrids: Stereoselective green synthesis and evaluation of anti-inflammatory effect involving TNF-α and nitrite inhibition” (2018).
